Among the data in PubChem BioAssay (NCI) are TGI and GI50 values, retold here.

Each structure is given as a SMILES string.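 Compound exposure: 48 hours, 5 concentrations, 96-well plates. Here, GI50 denotes the concentration required for 50% inhibition of growth. TGI is the concentration that stops growth completely.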

What all share (assay): DTP human tumour cell line panel, 48 h
The test system of assay [1] is TK-10 renal.
Assay [2] deals with SW-620 colon.
Assay [3] relates to SNB-19 CNS.
The test system of assay [4] is RPMI-8226 leukemia.
Assay [5] deals with LOX IMVI melanoma.
Assay [6] concerns SK-MEL-28 melanoma.
The subject of assay [7] is UACC-62 melanoma.
Assay [8] deals with HL-60(TB) leukemia.
Assay [9] deals with NCI-H522 lung.
The test system of assay [10] is DU-145 prostate.

In the case of `Cc1ccc(N2C(=O)N(c3ccc(C)cc3)C3(SC=NN3C)C2=O)cc1` (configuration not stated), the TGI in assay [1], in assay [2], in assay [3], in [4], in assay [5] and in assay [6] was over 100 µM each time. Also, the TGI in [7], in assay [8] and in assay [9] was over 100 µM throughout.
In the case of `N#Cc1c(-c2ccco2)cc(-c2ccc(N)cc2)[nH]c1=O`, the TGI in assay [1], in assay [2], in assay [3], in assay [4], in [5] and in assay [6] was over 100 µM each time. For the same molecule, the TGI in assay [7], in [8] and in assay [9] was over 100 µM each time.
For `NCCN.O=C([O-])[O-].O=C([O-])[O-].[Co+3].[K+]`, the GI50 in [1], in assay [2], in [3], in assay [4], in assay [5] and in assay [6] was over 100 µM each time. Moreover, the GI50 in assay [7], in assay [8] and in assay [9] was over 100 µM in each case. In addition, the TGI in [1], in assay [2], in assay [3], in assay [4], in assay [5] and in [6] was over 100 µM throughout. The TGI in assay [7], in assay [8] and in assay [9] was over 100 µM throughout.
For `NCCCn1c2c(c3ccccc3c1=O)C(=O)c1ccccc1-2`, the GI50 (commonly the concentration at which growth is held to half of that of the control) in assay [1] was 0.425 µM; in [10] it was 0.118 µM; in assay [2] it was 0.0713 µM; in assay [3], 0.0857 µM; in assay [5], 0.0649 µM; in assay [6], 0.842 µM. For the same molecule, the results for the GI50 in assay [7] and in assay [9] were 0.247 µM and 0.564 µM, respectively. Moreover, the TGI – broadly, the concentration at which net growth stops – in [1] was found to be 4.19 µM; in assay [10], 3.71 µM; in assay [2], 5.83 µM; in [3] it was 3.43 µM; in [4], 0.528 µM; in [5] it was 0.702 µM. In addition, the TGI in [6] was determined as 3.03 µM; in [7], 2.69 µM; in [9], 13.4 µM.
As to `C=C1C(O)C2C(=C(C)C13CC3)C(=O)C(C)(C)C2OC` (configuration not stated), the GI50 in assay [1] is over 100 µM; in assay [10], over 100 µM; in assay [2] it was over 100 µM; in assay [3], over 100 µM; in assay [4], 41.3 µM; in [5], over 100 µM. The GI50 in assay [6] was over 100 µM; in assay [7], 90.4 µM; in [9], 75.4 µM. The TGI in assay [1], in assay [10], in assay [2], in assay [3], in [4] and in [5] was over 100 µM each time. For the same molecule, the TGI in assay [6], in assay [7] and in assay [9] was over 100 µM throughout.
Take `Cc1cc(NCCCCNc2ccnc3cc(Cl)ccc23)nc(Nc2ccc(C(=O)N3CCCCC3)cc2)n1`: the GI50 in assay [1] is 2.11 µM; in [10], 2.87 µM; in assay [2], 1.46 µM; in [3] it was 3.25 µM; in [4] it was 0.239 µM; in [5], 1.44 µM. Also, the results for the GI50 in assay [6] and in [9] were 1.68 µM and 1.86 µM, respectively. Moreover, the TGI in assay [1] is 4.13 µM; in [10], 10.7 µM; in [2], 3.04 µM; in assay [3] it was 13.3 µM; in assay [4], 1.04 µM; in assay [5], 3.01 µM. For the same molecule, the TGI in assay [6] came to 3.37 µM; in [9], 4.22 µM.
As for `COC(=O)[C@]12CC[C@@H](C)[C@H](C)[C@@H]1C1=CC[C@@H]3[C@@]4(C)C(C=O)=C[C@@](C)(COC(=O)c5ccco5)[C@@H]4[C@H](O)C[C@@]3(C)[C@]1(C)CC2`, the GI50 in [1] is 2.04 µM; in [2], 2.86 µM; in assay [3] it was 4.32 µM; in [4] it was 1.76 µM; in assay [5], 1.57 µM; in [6], 0.0918 µM. Also, the concentration for 50% growth inhibition (GI50) is 0.382 µM in assay [7], 2.33 µM in [8] and 1.64 µM in [9]. Moreover, the TGI came out at 9.32 µM in [1]; 8.32 µM in assay [2]; 30.8 µM in assay [3]; 6.7 µM in [4]; 2.94 µM in [5]; 2.64 µM in assay [6]. Also, the TGI in assay [7] amounted to 2.22 µM; in [8], 5.84 µM; in assay [9], 3.94 µM.
As to `CC1COS(=O)O1` (configuration not stated), the TGI in assay [1], in assay [2], in assay [3], in assay [4], in [5] and in assay [6] was over 100 µM each time. Further, the TGI in assay [7], in [8] and in assay [9] was over 100 µM in each case.
Consider `COc1cc2c3c(n(CCCN(C)CCO)c(=O)c2cc1OC)-c1cc2c(cc1C3=O)OCO2`, for which the GI50 is 81.7 µM in assay [1]; 0.816 µM in assay [10]; 0.879 µM in assay [2]; 8.32 µM in assay [3]; 1.45 µM in assay [4]; 0.709 µM in assay [5]. For the same molecule, the figures for the GI50 in [6], in assay [7] and in assay [9] were over 80.2 µM, 1.54 µM and 2.16 µM, respectively. Also, the total growth inhibition concentration (TGI) is over 100 µM in [1]; over 100 µM in [10]; over 55.2 µM in [2]; over 100 µM in assay [3]; 8.94 µM in assay [4]; 13.9 µM in [5]. Also, the values for the TGI in assay [6], in [7] and in [9] were over 100 µM, 24.7 µM and over 46 µM, respectively.
